Laboratory results from patent publication US10561749B2, “Nuclear medicine diagnostic imaging agent” (Kyoto University, priority 2015, dated 2020).

How the values were obtained:
Type in all cases: biochemical
[1] = molecular target: T1, EGFR (T790M) (Homo sapiens, UniProt P00533, T790M); experiment: EGFR tyrosine kinase inhibiting activity, ADP-Glo (EGFR (T790M) Kinase Enzyme System); settings: for IC50: read-out: EGFR Kinase inhibition: IC50 T790M; for EGFR Kinase inhibition: IC50 T790M: ATP 10 μM, max concentration 20 μM, >10: <50% inhibition at 10 μM, no active: almost no activity at 20 μM
T1 construct: purchased Promega V4506
Experimental: (§1) Four types of EGFR Kinase Enzyme Systems, specifically, EGFR Kinase Enzyme System (Catalog No. V3831), EGFR (L858R) Kinase Enzyme System (Catalog No. V5322), EGFR (T790M) Kinase Enzyme System (Catalog No. V4506), and EGFR (T790M, L858R) Kinase Enzyme System (Catalog No. V5324) were used (all of them were manufactured by Promega).
(§2) The measurement was carried out according to the Promega protocol applications guide. That is, a buffer solution (40 mM Tris-HCl, pH 7.5, 20 mM MgCl2, 50 μM DTT and 0.1 mg/mL BSA) was used as a dilute solution. The concentration of each compound started at 20 μM (the final concentration, including 1% DMSO) with 5-fold dilutions with the buffer solution. Thus, ten concentrations of each compound were prepared. Then, 2 μL of each concentration of each compound thus obtained was added to each well of a 384-well plate. Furthermore, 4 μL (20 ng) of an EGFR Kinase […] that came with each EGFR Kinase Enzyme System was added to each well, which then was incubated at room temperature for ten minutes. Subsequently, 4 μL of mixed solution of ATP (10 μM) and Poly(Glu, Tyr) (2 μg) substrate was added to each well, which then was incubated at room temperature for one hour. Then, 10 μL of ADP-Glo™ Reagent (ADP-Glo™ Kinase Assay, Promega) was added to each well, which then was reacted at room temperature for 40 minutes. Furthermore, 20 μL of Kinase Detection Reagent (ADP-Glo™ Kinase Assay, Promega) was added to each well, which then was reacted at room temperature for one hour. […] From the data thus obtained, dose-response curves and IC50 were calculated using GraphPad Prism 5 (GraphPad Software, Inc.). In Table 1 below, WT indicates the measurement results obtained with the EGFR Kinase Enzyme System, L858R indicates the measurement results obtained with the EGFR (L858R) Kinase Enzyme System, T790M indicates the measurement results obtained with the EGFR (T790M) Kinase Enzyme System, and DM indicates the measurement results obtained with the EGFR (T790M, L858R) Kinase Enzyme System.

[2] = molecular target: T2, EGFR (L858R) (Homo sapiens, UniProt P00533, L858R); experiment: EGFR tyrosine kinase inhibiting activity, ADP-Glo (EGFR (L858R) Kinase Enzyme System); settings: read-out: EGFR Kinase inhibition: IC50 L858R
T2 construct: purchased Promega V5322
Experimental: as §1, §2

[3] = molecular target: T3, EGFR (T790M, L858R) (Homo sapiens, UniProt P00533, L858R/T790M); experiment: EGFR tyrosine kinase inhibiting activity, ADP-Glo (EGFR (T790M, L858R) Kinase Enzyme System, DM); settings: for IC50: read-out: EGFR Kinase inhibition: IC50 DM; for EGFR Kinase inhibition: IC50 DM: ATP 10 μM, max concentration 20 μM, >10: <50% inhibition at 10 μM, no active: almost no activity at 20 μM
T3 construct: purchased Promega V5324
Experimental: as §1, §2

[4] = molecular target: T4, EGFR tyrosine kinase (WT) (Homo sapiens, UniProt P00533); experiment: EGFR tyrosine kinase inhibiting activity, ADP-Glo (EGFR Kinase Enzyme System, WT); settings: read-out: EGFR Kinase inhibition: IC50 WT
T4 construct: purchased Promega V3831
Experimental: as §1, §2

T4 sequence (P00533 25-1210): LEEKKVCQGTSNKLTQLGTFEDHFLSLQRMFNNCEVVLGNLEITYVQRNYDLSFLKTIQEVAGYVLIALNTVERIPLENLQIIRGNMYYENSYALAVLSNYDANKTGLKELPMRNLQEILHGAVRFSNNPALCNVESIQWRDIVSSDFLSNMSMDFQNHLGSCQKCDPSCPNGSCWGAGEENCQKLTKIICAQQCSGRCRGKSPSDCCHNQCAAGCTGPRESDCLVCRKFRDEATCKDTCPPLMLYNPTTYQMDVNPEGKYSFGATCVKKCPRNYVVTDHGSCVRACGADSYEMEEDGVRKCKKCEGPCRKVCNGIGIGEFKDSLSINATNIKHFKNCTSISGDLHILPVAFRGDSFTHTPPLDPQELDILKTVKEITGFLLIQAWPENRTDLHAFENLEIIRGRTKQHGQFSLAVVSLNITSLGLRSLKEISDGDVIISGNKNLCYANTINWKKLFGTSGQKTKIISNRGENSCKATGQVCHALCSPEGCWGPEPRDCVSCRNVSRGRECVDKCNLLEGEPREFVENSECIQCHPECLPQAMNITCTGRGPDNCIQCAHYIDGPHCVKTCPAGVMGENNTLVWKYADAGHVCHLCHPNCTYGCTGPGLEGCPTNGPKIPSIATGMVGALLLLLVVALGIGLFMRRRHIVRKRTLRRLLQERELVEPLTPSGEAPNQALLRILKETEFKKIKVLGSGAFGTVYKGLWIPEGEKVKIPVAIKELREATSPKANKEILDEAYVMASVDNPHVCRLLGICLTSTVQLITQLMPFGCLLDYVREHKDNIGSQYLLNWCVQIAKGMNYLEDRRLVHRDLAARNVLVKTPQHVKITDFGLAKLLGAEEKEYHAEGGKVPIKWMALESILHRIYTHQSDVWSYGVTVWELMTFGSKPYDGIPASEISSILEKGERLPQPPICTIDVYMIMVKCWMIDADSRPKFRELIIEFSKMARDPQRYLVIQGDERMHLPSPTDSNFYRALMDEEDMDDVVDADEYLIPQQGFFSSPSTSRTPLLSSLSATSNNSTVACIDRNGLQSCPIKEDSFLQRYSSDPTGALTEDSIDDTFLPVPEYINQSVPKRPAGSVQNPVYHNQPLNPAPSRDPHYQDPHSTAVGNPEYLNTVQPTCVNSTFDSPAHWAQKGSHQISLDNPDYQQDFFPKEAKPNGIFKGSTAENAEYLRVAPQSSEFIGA
T3 sequence (P00533 25-1210 T790M/L858R): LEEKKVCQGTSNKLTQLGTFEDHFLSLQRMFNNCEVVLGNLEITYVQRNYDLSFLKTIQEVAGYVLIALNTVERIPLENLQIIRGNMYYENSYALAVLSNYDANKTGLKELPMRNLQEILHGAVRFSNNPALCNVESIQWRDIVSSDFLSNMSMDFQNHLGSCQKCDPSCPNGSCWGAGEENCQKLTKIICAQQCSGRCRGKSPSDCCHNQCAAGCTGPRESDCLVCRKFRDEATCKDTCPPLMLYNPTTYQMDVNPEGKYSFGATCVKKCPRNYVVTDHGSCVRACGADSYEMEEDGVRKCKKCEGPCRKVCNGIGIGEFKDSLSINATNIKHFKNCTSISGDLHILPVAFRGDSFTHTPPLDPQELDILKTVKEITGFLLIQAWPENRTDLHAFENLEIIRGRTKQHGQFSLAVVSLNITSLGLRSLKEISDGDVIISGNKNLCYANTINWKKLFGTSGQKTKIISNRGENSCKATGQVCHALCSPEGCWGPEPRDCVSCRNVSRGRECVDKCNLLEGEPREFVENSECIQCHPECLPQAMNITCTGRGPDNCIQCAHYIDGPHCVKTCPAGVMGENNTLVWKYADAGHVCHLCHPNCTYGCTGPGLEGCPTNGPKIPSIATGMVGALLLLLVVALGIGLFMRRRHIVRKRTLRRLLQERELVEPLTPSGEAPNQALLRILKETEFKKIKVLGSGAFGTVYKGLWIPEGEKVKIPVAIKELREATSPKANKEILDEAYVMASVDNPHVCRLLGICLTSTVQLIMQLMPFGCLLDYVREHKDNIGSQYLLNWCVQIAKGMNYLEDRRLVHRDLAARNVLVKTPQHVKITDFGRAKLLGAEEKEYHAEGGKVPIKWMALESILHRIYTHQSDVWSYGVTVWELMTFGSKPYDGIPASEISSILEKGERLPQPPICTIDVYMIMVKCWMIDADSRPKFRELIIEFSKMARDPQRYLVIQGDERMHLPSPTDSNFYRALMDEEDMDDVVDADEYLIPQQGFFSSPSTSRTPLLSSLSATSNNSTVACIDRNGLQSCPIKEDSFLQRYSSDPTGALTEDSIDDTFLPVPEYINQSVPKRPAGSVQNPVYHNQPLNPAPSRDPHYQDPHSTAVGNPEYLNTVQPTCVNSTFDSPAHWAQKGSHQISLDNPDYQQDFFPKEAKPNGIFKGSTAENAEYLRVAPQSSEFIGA
T2 sequence (P00533 25-1210 L858R): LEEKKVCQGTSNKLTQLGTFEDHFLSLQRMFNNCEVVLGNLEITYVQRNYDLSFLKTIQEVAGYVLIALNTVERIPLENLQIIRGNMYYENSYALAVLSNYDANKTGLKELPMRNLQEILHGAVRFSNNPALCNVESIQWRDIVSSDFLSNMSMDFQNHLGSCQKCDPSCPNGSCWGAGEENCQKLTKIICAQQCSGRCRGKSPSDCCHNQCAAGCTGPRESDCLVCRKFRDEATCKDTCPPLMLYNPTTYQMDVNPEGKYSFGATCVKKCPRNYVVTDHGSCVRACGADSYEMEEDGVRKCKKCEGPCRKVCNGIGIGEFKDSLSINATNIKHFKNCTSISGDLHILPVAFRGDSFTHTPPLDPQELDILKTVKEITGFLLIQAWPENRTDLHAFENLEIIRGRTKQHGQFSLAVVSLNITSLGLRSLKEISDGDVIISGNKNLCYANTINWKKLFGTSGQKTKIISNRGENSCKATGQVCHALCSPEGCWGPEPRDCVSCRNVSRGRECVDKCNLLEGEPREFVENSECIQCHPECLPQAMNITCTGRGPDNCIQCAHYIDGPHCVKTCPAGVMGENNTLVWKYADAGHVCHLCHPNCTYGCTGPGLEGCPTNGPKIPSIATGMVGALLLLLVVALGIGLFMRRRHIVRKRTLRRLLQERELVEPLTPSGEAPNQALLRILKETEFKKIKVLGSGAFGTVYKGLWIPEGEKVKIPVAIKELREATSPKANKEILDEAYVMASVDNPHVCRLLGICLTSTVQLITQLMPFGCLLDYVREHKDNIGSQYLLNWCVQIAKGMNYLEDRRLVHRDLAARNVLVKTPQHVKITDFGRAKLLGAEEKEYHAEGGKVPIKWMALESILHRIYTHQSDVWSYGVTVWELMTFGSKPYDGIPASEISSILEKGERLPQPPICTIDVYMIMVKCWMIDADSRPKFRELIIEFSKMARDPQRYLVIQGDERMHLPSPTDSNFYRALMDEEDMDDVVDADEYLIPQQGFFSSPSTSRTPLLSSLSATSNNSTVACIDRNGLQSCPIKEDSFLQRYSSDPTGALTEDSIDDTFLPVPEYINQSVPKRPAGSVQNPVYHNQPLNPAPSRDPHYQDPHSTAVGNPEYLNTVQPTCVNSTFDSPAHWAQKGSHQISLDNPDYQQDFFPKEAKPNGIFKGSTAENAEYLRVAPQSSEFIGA
T1 sequence (P00533 25-1210 T790M): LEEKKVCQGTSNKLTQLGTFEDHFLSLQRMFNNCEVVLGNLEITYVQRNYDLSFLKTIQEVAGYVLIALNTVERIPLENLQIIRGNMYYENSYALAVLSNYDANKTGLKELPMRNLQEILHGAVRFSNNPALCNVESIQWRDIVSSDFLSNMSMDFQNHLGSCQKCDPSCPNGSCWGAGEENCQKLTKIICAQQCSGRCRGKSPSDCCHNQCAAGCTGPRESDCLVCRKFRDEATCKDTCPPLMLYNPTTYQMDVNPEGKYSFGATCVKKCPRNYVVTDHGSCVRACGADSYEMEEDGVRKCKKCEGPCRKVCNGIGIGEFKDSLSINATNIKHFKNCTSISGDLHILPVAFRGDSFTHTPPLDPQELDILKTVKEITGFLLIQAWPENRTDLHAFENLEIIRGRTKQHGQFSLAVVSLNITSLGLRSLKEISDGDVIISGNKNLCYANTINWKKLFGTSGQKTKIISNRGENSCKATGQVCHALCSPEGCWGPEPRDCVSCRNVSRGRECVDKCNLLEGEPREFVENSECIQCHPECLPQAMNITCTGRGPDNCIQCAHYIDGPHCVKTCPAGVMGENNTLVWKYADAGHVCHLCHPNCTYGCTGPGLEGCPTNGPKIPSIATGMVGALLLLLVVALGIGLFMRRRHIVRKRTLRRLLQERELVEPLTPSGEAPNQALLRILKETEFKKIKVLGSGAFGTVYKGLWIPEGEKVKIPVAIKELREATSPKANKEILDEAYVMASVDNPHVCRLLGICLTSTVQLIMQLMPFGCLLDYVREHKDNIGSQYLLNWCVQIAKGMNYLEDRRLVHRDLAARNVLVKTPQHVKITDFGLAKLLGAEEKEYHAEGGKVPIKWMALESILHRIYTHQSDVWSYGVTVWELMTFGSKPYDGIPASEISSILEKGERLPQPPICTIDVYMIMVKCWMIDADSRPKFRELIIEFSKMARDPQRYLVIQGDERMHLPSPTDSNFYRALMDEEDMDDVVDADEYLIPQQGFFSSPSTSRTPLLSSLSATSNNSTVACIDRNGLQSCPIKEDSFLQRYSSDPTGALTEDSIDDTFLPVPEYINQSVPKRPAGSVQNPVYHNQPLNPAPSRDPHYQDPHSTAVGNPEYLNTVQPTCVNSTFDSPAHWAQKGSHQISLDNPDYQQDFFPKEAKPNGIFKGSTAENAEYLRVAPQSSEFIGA

Row | Structure (SMILES) | IC50 [1] [µM] | IC50 [2] [µM] | IC50 [3] [µM] | IC50 [4] [µM] | EGFR Kinase inhibition: IC50 T790M [1] | EGFR Kinase inhibition: IC50 DM [3]
1 | OC[C@@H](Nc1ncnc2sc3c(c12)CCN(CCF)C3)c1ccccc1 [P1] | – | 3.41 | – | 2.31 | no active | no active
2 | O=C(/C=C/CN1CCN(CCF)CC1)N1CCc2c(sc3ncnc(Nc4cccc(Br)c4)c23)C1 [P8] | – | 1.38 | – | 4.31 | no active | no active
3 | O=C(/C=C/CN1CCN(CCF)CC1)N1CCc2c(sc3ncnc(O[C@@H](c4ccccc4)C(F)(F)F)c23)C1 [P6, (S,E)-4-(4-(2-Fluoroethyl)piperazin-1-yl)-1-(4-(2,2,2-trifluoro-1-phenylethoxy)-5,8-dihydropyrido[4′,3′:4,5]thieno[2,3-d]pyrimidin-7 (6H)-yl)but-2-en-1-one] | – | 0.336 | > 10 | 0.896 | no active | –
4 | O=C(CN1CCN(CCF)CC1)N1CCc2c(sc3ncnc(N[C@H](CO)c4ccccc4)c23)C1 [P3, (S)-2-(4-(2-Fluoroethyl)piperazin-1-yl)-1-(4-((2-hydroxy-1phenylethyl)amino)-5,8-dihydropyrido[4′,3′:4,5]thieno[2,3-d]pyrimidin-7(6H)-yl)ethan-1-one] | – | 2.67 | – | 4.37 | no active | no active
5 | O=C(CCN1CCN(CCF)CC1)N1CCc2c(sc3ncnc(N[C@H](CO)c4ccccc4)c23)C1 [P4, (S)-3-(4-(2-Fluoroethyl)piperazin-1-yl)-1-(4-((2-hydroxy-1phenylethyl)amino)-5,8-dihydropyrido[4′,3′:4,5]thieno[2,3-d]pyrimidin-7(6H)-yl)propan-1-one] | – | 1.83 | – | 2.83 | no active | no active

Compounds with a lower IC50 [2], results first:

Row | IC50 [1] [µM] | IC50 [2] [µM] | IC50 [3] [µM] | IC50 [4] [µM] | EGFR Kinase inhibition: IC50 T790M [1] | EGFR Kinase inhibition: IC50 DM [3] | Structure (SMILES)
6 | > 10 | 0.052 | > 10 | 0.09 | – | – | O=C(/C=C/CN1CCN(CCOCCOCCOCCF)CC1)N1CCc2c(sc3ncnc(N[C@H](CO)c4ccccc4)c23)C1 [P10]
7 | – | 0.051 | – | 0.374 | no active | no active | COC[C@@H](Nc1ncnc2sc3c(c12)CCN(C(=O)/C=C/CN1CCN(CCF)CC1)C3)c1ccccc1 [P7]
8 | > 10 | 0.031 | > 10 | 0.067 | – | – | O=C(/C=C/CN1CCN(CCOCCF)CC1)N1CCc2c(sc3ncnc(N[C@H](CO)c4ccccc4)c23)C1 [P9]
9 | > 10 | 0.027 | > 10 | 0.13 | – | – | C[C@@H](Nc1ncnc2sc3c(c12)CCN(C(=O)/C=C/CN1CCN(CCF)CC1)C3)c1ccccc1 [P5, (R,E)-4-(4-(2-Fluoroethyl)piperazin-1-yl)-1-(4-((1-phenylethyl)amino)-5,8-dihydropyrido[4′,3′:4,5]thieno[2,3-d]pyrimidin-7(6H)-yl)but-2-en-1-one]
10 | 8.97 | 0.009 | > 10 | 0.044 | – | – | O=C(/C=C/CN1CCN(CCF)CC1)N1CCc2c(sc3ncnc(N[C@H](CO)c4ccccc4)c23)C1 [P2, (S,E)-4-(4-(2-Fluoroethyl)piperazin-1-yl)-1-(4-((2-hydroxy-1phenylethyl)amino)-5,8-dihydropyrido[4′,3′:4,5]thieno[2,3-d]pyrimidin-7(6H)-yl)but-2-en-1-one]
